The values below come from patent USRE37495E1, “Substituted 1-arylpyrazoles” (Bayer Aktiengesellschaft, priority 1993, dated 2002).

Assay type in all cases: in vivo
The subject of experiment [1] is peach aphid (Myzus persicae). Nature of the experiment: Myzus test (leaf dip). Conditions: concentration of active compound 0.1%, after one day, cabbage leaves dipped. As to the method: (§1) Solvent: 7 parts by weight of dimethylformamide
(§2) Emulsifier: 1 part by weight of alkylaryl polyglycol ether
(§3) To produce a suitable preparation of active compound, 1 part by weight of active compound is mixed with the stated amount of solvent and the stated amount of emulsifier, and the concentrate is diluted with water to the desired concentration.
Cabbage leaves (Brassica oleracea) which are heavily infested with the peach aphid (Myzus persicae) are treated by being dipped into the preparation of active compound of the desired concentration.
(§4) After the specified period of time, the destruction in % is determined. 100% means that all the aphids have been killed; 0% means that none of the aphids have been killed.

Experiment [2] relates to black bean aphid (Aphis fabae). As to the kind of experiment: Aphis test (systemic action). The settings on record: concentration of active compound 0.02%, after four days, bean plants watered (systemic). As to the method: Aphis Test (Systemic Action)
as §1, §2, §3
Bean plants (Vicia faba) which are heavily infested with the black bean aphid (Aphis fabae) are each watered with 20 ml of preparation of active compound of the desired concentration in such a way that the preparation of active compound penetrates into the soil without wetting the shoot. The active compound is taken up by the roots and passes to the shoot.
as §4

Experiment [3] relates to Phaedon cochleariae larvae. As to the kind of experiment: Critical concentration test/root-systemic action, Phaedon. The settings on record: 2.5 ppm active compound in soil, leaves infested after 7 days, evaluated after a further 2 days. As to the method:
Critical Concentration Test/Root-Systemic Action.
Test insect: Phaedon cochleariae larvae
(§5) Solvent: 3 parts by weight of acetone
as §2
(§6) To produce a suitable preparation of active compound, 1 part by weight of active compound is mixed with the stated amount of solvent, the stated amount of emulsifier is added and the concentrate is diluted with water to the desired concentration.
(§7) The preparation of active compound is intimately mixed with soil. The concentration of the active compound in the preparation is of practically no importance, only the amount by weight of active compound per unit volume of soil, which is given in ppm (=mg/l), being decisive. The treated soil is transferred into pots and these are planted with cabbage (Brassica oleracea). The active compound can in this way be taken up from the soil by the roots of the plants and be transferred into the leaves.
(§8) After a further 2 days, the evaluation is made by counting or estimating the dead animals. The root-systemic action of the active compound is deduced from the mortality figures. It is 100% if all test animals have been killed and 0% if just as many test insects are still alive as in the case of the untreated control.

A further experiment has as its system Myzus persicae. As to the kind of experiment: Critical concentration test/root-systemic action, Myzus. Conditions: 20 ppm active compound in soil, leaves infested after 7 days, evaluated after a further 2 days. As for the experimental part:
Critical Concentration Test/Root-Systemic Action
Test insect: Myzus persicae
as §5, §2, §6, §7, §8

For the next experiment, the system named is Lucilia cuprina larvae. As to the kind of experiment: Blowfly larvae test. Conditions: after 24 hours. As to the method:
Test animals: Lucilia cuprina larvae
35 parts by weight of ethylene glcyol monomethyl ether
(§9) 35 parts by weight of nonylphenol polyglycol ether
To produce a suitable preparation of active compound, three parts by weight of active compound are mixed with seven parts by weight of the abovementioned mixture and the emulsion concentrate thus obtained is diluted with water to the particular desired concentration.
About 20 Lucilia cuprina res. larvae are introduced into a test tube which contains approx. 1 cm^3 of horse meat and 0.5 ml of the preparation of active compound. After 24 hours, the effectiveness of the preparation of active compound is determined. 100% means that all blowfly larvae have been killed; 0% means that none of the blowfly larvae have been killed.

Experiment [4] concerns Musca domestica, strain WHO (N). As to the kind of experiment: Fly test. Conditions: concentration of active compound 1 ppm, after 6 hours, filter paper. As to the method:
Test animals: Musca domestica, strain WHO (N)
(§10) 35 parts by weight of ethylene glycol monomethyl ether
as §9
(§11) To produce a suitable formulation, three parts by weight of active compound are mixed with seven parts of the abovementioned solvent/emulsifier mixture, and the emulsion concentrate thus obtained is diluted with water to the particular desired concentration.
2 ml of this preparation of active compound are pipetted onto filter paper discs (φ9.5 cm) located in Petri dishes of a suitable size. After the filter paper discs have dried, 25 test animals are introduced into the Petri dish, which is covered.
After 6 hours, the effectiveness of the preparation of active compound is determined. The effectiveness is expressed in %. 100% means that all flies have been killed; 0% means that none of the flies have been killed.

Experiment [5] has as its system Blattella germanica or Periplaneta americana. As to the kind of experiment: Cockroach test. The settings on record: after 6 hours, filter paper. As to the method:
Test animals: Blattella germanica or Periplaneta americana
as §10, §9, §11
2 ml of this preparation of active compound are pipetted onto filter paper discs (φ9.5 cm) located in Petri dishes of a suitable size. After the filter paper discs have dried, 5 test animals (Blattella germanica or Periplaneta americana) are introduced into the Petri dish, which is covered.
After 6 hours, the effectiveness of the preparation of active compound is determined. The effectiveness is expressed in %. 100% means that all cockroaches have been killed; 0% means that none of the cockroaches have been killed.

Experiment [6] has as its system All stages (eggs, larvae, pupae and adults) of Ctenocephalides felis. As to the kind of experiment: Flea in-vitro test (all development stages). Conditions: active compound concentration 10% in blood meal. As to the method:
Flea In-Vitro Test (All Development Stages)
Test subject: All stages (eggs, larvae, pupae and adults) of Ctenocephalides felis.
Blood meal is dried overnight in a shallow dish at approximately 70° C. and then screened using a mesh size of 0.63 mm.
1.8 g portions of this prepared blood meal are transferred into plastic Petri dishes of φ9.8 cm.
Using an Eppendorf pipette, 0.2 ml of substance are placed on the 1.8 g of blood meal (dilution factor 1:10).
That is to say, at a use concentration of 1 ppm, the aqueous solution must have a concentration of 10 ppm. The solution is distributed dropwise over the entire surface of-the blood meal.
These prepared dishes are allowed to dry overnight. Using a suitable device, the substance, which is now in the form of dried lumps of blood meal, is crushed and distributed uniformly in the Petri dish by rotating movements. A spatula-full of sieved flea eggs (which are obtained from artificially infected cats) is now added to these prepared test dishes. The dish is sealed with Parafilm and shaken vigorously.
Incubation is effected at 25° C. and the relative atmospheric humidity of 85%. At certain intervals, the dishes are examined for development stages of fleas.
Test criteria: The criteria used for the in-vitro activity of a substance is the inhibition of flea development or a standstill of the development before the adult stage is reached. […]

As to `N#Cc1nn(-c2c(Cl)cc(C(F)(F)F)cc2Cl)c(N)c1[S+]([O-])C(F)(F)F` (stereo not drawn) [prior art], the degree of destruction in experiment [1] was 0%; in experiment [2], 0%; in experiment [3], 0%; with Myzus persicae, 0%; in experiment [5] (concentration of active compound 10 ppm) it was below 100%. In addition, in the experiment with Lucilia cuprina larvae (concentration of active compound 1000 ppm), the destructive activity was found to be 100%. The destruction in experiment [4] is below 100%; in experiment [6] it was 0%.
In turn, `CC(F)(F)Sc1cnn(-c2c(Cl)cc(C(F)(F)F)cc2NN)c1N` [Example 33, 5-amino-4-(1,1-difluoroethylthio)-1-(2-chloro-4-trifluoromethyl-6-hydrazinophenyl)-pyrazole] came in with a degree of destruction in experiment [3] of 100%. The compound also registered a destructive activity in the experiment with Lucilia cuprina larvae (concentration of active compound ≧300 ppm) of 100%.
In experiment [3], `Cc1nn(-c2c(Cl)cc(C(F)(F)F)cc2Cl)c(N)c1SC(C)(F)F` [Example 1, 5-amino-3-methyl-4-(1,1-difluoroethylthio)-1-(2,6-dichloro-4-trifluoromethylphenyl)-pyrazole] registered a degree of destruction of 100%. In experiment [5] (concentration of active compound >10 ppm), this compound returned a destruction of 100%.
